Laboratory results reported in article PMC10447463, “Data-mining unveils structure–property–activity correlation of viral infectivity enhancing self-assembling peptides” (Nature Communications, 2023).
Read-outs that look alike come from different tables or passages of the source.

Legend:
[1] = system: HIV-1 infection of TZM-bl cells; assay: HIV-1 infectivity enhancement assay, β-galactosidase luminescence; format: cell-based; settings: for Rel-EFC: infection relative to EF-C (QCKIKQIINMWQ = 1); for Log10 Infection Rel EFC: log10 of infection relative to EF-C; for Log Infectivity: Log10 infection relative to EF-C, TZM-bl cells, asymmetric std dev errors; for Log10 Infection Rel EF-C: HIV-1 infection of TZM-bl cells; for Log10 of Rel to EFC (Feb2021): Log10 of infection relative to EF-C; for Abs. Inf.: absolute infection signal, HIV-1 on TZM-bl cells, β-galactosidase luminescence; for Log10 Inf. rel. to EF-C: log10 of HIV-1 infection of TZM-bl cells relative to EF-C (EF-C = 0); for Abs. Inf. / RLU s-1: absolute infection rate, peptide 1.3 µM on cells, virus preincubated 10 min with fibrils, read 3 days post infection, mean of triplicate
[2] = format: physicochemical; settings: for ThT Cat. / ThT-Fluorescence (categorical): ThT-active if fluorescence at least twice the control; for Rel. ThT: n-fold ThT fluorescence vs control (PBS, 10% DMSO), 4 µL 1 mg/mL fibrils + 20 µL 50 µM ThT, 15 min RT, ex 440 / em 488 nm, triplicate
Procedure, shortened: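 Preformed peptide fibrils (1 mg/mL) mixed with 50 µM ThT in PBS, 15 min at RT, fluorescence ex 440/em 488 nm versus PBS blank, triplicates. Zeta potential: peptides at 1 mg/mL in PBS pH 7.4, aged 1 d at RT, diluted in 1 mM KCl, Smoluchowski from electrophoretic mobility.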

[3] = Conversion rate (CR) assay with fluorescamine; format: physicochemical; design: key to CR: % = 100−100×filtrate/original fluorescence intensity
Procedure, shortened: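 In the conversion assay, unconverted peptide passing a 3 kDa membrane at 4 °C was labelled with fluorescamine alongside unfiltered PNF, both in DMSO, and read at 365/470 nm after 20 min at room temperature. β-sheet content relied on ATR FT-IR of lyophilized fibril powder.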

[4] = Fig. S7 panel A (plotted against β-sheet content)
[5] = Fig. S7 panel B (plotted against CR), rounded to two decimals
[6] = Log10 of infection rate relative to EF-C, Figure 3A source data
[7] = infection rate relative to EF-C, log10, data of Figure 2D
[8] = infection rate relative to EF-C, log10, source data of Figure 2C
[9] = ThT fluorescence category, 1 if Rel. ThT >2
[10] = Fig. S7 panel B, conversion rate, fluorescamine assay
[11] = conversion rate, fluorescamine assay
[12] = HIV-1 infection relative to EF-C, Fig 23 plot, panels A and B, mean of 3 values
[13] = HIV-1 infection relative to EF-C, Fig 23 plot, single data point, replicate 1
[14] = HIV-1 infection relative to EF-C, Fig 23 plot, single data point, replicate 2
[15] = HIV-1 infection relative to EF-C, Fig 23 plot, single data point, replicate 3
[16] = n-fold infection vs virus only, relative to that of EF-C, 1.3 µM peptide
[17] = conversion of monomer to nanostructures, 3 kDa MWCO filtration, fluorescamine, ex 365 / em 470 nm, triplicate

Row | Substance | Rel-EFC ([1]; 1.3 µM peptide) | Log10 Infection Rel EFC ([1]; 1.3 µM peptide) | Log Infectivity [1, 4] | Log Infectivity [1, 5] | Log10 Infection Rel EF-C [1, 6] | Log10 Infection Rel EF-C [1, 7] | Log10 Infection Rel EF-C [1, 8] | Log10 of Rel to EFC (Feb2021) ([1]; all peptides of FigS16) | Tht category (> 2 to blank = +) ([2]; Fig S10 panel D) | ThT Cat. ([2]; Fig S10 panel E) | ThT Cat, ([2]; ThT category, 1 if Rel. ThT >2) | ThT Cat. [2, 9] | ThT Cat. / ThT-Fluorescence (categorical) [2] | CR / % [3, 10] [%] | CR [3, 11] | Abs. Inf. [1] | Log10 Inf. rel. to EF-C [1] | ThT Cat. ([2]; ThT category, 1 if Rel. ThT >2) | Tht category (> 2 to blank = +) ([2]; FigS12 panel A) | ThT Cat, ([2]; FigS12 panel B) | also measured
1 | KFKFQFFF | 0,4 | -0,39 | -0.3936 | -0.39 | -0.39 | -0.3936 | -0.3936 | -0.39 | 1 (ThT. Cat is 1, if Rel. ThT >2) | 1 (ThT. Cat is 1, if Rel. ThT >2) | 1 (ThT. Cat is 1, if Rel. ThT >2) | 1 (ThT. Cat is 1, if Rel. ThT >2) | 1 (ThT. Cat is 1, if Rel. ThT >2) | 98.5 | 98.46 |  |  |  |  |  | 
2 | KFKFQFNM | 0,47 | -0,33 | -0.3265 | -0.33 | -0.33 | -0.3265 | -0.3265 | -0.33 | 0 (ThT-inactive (N-Fold <2)) | 0 (ThT-inactive (N-Fold <2)) | 0 (ThT-inactive (N-Fold <2)) |  | 0 (ThT-inactive (N-Fold <2)) | 94.8 | 94.77 | 7067 | -0.3265 | 0 (ThT-inactive (N-Fold <2)) |  |  | 
3 | KIKIKIKIWW | 0,37 | -0,43 | -0.4266 | -0.43 | -0.43 | -0.4266 | -0.4266 | -0.43 | 1 (ThT. Cat is 1, if Rel. ThT >2) | 1 (ThT. Cat is 1, if Rel. ThT >2) | 1 (ThT. Cat is 1, if Rel. ThT >2) | 1 (ThT. Cat is 1, if Rel. ThT >2) | 1 (ThT. Cat is 1, if Rel. ThT >2) | 92 | 92 |  |  |  |  |  | Log10 of Rel to EFC (Feb2021) ([1]; second listing, peptides with TEM 2cat 0): -0.43
4 | KIKIKIQI | 0,1 | -1,01 | -1.014 | -1.01 | -1.01 | -1.014 | -1.014 |  | 1 (ThT. Cat is 1, if Rel. ThT >2) | 1 (ThT. Cat is 1, if Rel. ThT >2) | 1 (ThT. Cat is 1, if Rel. ThT >2) | 1 (ThT. Cat is 1, if Rel. ThT >2) | 1 (ThT. Cat is 1, if Rel. ThT >2) | 80 | 80 |  |  |  | 1 (ThT. Cat is 1, if Rel. ThT >2) | 1 (ThT. Cat is 1, if Rel. ThT >2) | 
5 | KIKIQIC | 0,61 | -0,22 | -0.2164 | -0.22 | -0.22 | -0.2164 | -0.2164 | -0.22 | 1 (ThT. Cat is 1, if Rel. ThT >2) | 1 (ThT. Cat is 1, if Rel. ThT >2) | 1 (ThT. Cat is 1, if Rel. ThT >2) | 1 (ThT. Cat is 1, if Rel. ThT >2) | 1 (ThT. Cat is 1, if Rel. ThT >2) | 51.5 | 51.55 |  |  |  |  |  | Infection RLU/s, 1.3 µm abs ([1]; peptide 1.3 µm (so in the source), mean of the 3 replicates): 9447 RLU/s
6 | KIKIQIII | 0,35 | -0,45 | -0.4521 | -0.45 | -0.45 | -0.4521 | -0.4521 | -0.45 | 1 (ThT. Cat is 1, if Rel. ThT >2) | 1 (ThT. Cat is 1, if Rel. ThT >2) | 1 (ThT. Cat is 1, if Rel. ThT >2) | 1 (ThT. Cat is 1, if Rel. ThT >2) | 1 (ThT. Cat is 1, if Rel. ThT >2) | 87 | 87 |  |  |  |  |  | 
7 | KIKQII | 0 | -2,31 | -2.308 | -2.31 | -2.31 | -2.308 | -2.308 |  | 0 (ThT-inactive (N-Fold <2)) | 0 (ThT-inactive (N-Fold <2)) | 0 (ThT-inactive (N-Fold <2)) | 0 (ThT-inactive (N-Fold <2)) | 0 (ThT-inactive (N-Fold <2)) | 13 | 12.97 |  |  |  | 0 (ThT-inactive (N-Fold <2)) | 0 (ThT-inactive (N-Fold <2)) | 
8 | QCKAKAQANM | 0,01 | -1,83 | -1.835 | -1.83 | -1.83 | -1.835 | -1.835 |  | 0 (ThT-inactive (N-Fold <2)) | 0 (ThT-inactive (N-Fold <2)) | 0 (ThT-inactive (N-Fold <2)) |  | 0 (ThT-inactive (N-Fold <2)) | 55.9 | 55.94 | 563.3 |  | 0 (ThT-inactive (N-Fold <2)) | 0 (ThT-inactive (N-Fold <2)) | 0 (ThT-inactive (N-Fold <2)) | Inf. rel. EF-C [1, 12]: 0.02465; Inf. rel. EF-C [1, 13]: 0.03504; Inf. rel. EF-C [1, 14]: 0.01727; Inf. rel. EF-C [1, 15]: 0.02164; Abs. Inf. / RLU s-1 [1]: 563 RLU s-1; Inf. rel. EF-C [1, 16]: 0.01; Rel. ThT [2]: 1.4; CR / % [3, 17]: 56%
9 | QCKAKAQANMWQ | 0,07 | -1,14 | -1.144 | -1.14 | -1.14 | -1.144 | -1.144 |  | 0 (ThT-inactive (N-Fold <2)) | 0 (ThT-inactive (N-Fold <2)) | 0 (ThT-inactive (N-Fold <2)) |  | 0 (ThT-inactive (N-Fold <2)) | 89.3 | 89.28 | 2767 | -1.144 | 0 (ThT-inactive (N-Fold <2)) | 0 (ThT-inactive (N-Fold <2)) | 0 (ThT-inactive (N-Fold <2)) | Inf. rel. EF-C [1, 12]: 0.1207; Inf. rel. EF-C [1, 13]: 0.1632; Inf. rel. EF-C [1, 14]: 0.09951; Inf. rel. EF-C [1, 15]: 0.09928; Abs. Inf. / RLU s-1 [1]: 2767 RLU s-1; Inf. rel. EF-C [1, 16]: 0.07; Rel. ThT [2]: 1.5; CR / % [3, 17]: 89%
10 | QCKFKQFFNM | 0,43 | -0,37 | -0.3706 | -0.37 | -0.37 | -0.3706 | -0.3706 | -0.37 | 1 (ThT. Cat is 1, if Rel. ThT >2) | 1 (ThT. Cat is 1, if Rel. ThT >2) | 1 (ThT. Cat is 1, if Rel. ThT >2) |  | 1 (ThT. Cat is 1, if Rel. ThT >2) | 98.7 | 98.67 | 5847 | -0.3706 | 1 (ThT. Cat is 1, if Rel. ThT >2) |  |  | 
